# In US9801918B2, “Methods of treatment using extracts of Anisomeles heyneana” (Council of Scientific & Industrial Research, priority 2011, dated 2017):
# Tests used:
# [1] = test system: M. tuberculosis; assay: Anti-mycobacterial activity (inhibition of growth of M. tuberculosis); format: cell-based; conditions: concentration exhibiting 90% inhibition against growth of M. tuberculosis, 'Not active' at 100 μg/ml; for IC90: Mycobacterium tuberculosis, read-out: IC90 value determined against M. tuberculosis
# [2] = test system: human monocytic leukaemia Thp-1 cell lines; assay: Anti proliferative activity-MTT cell proliferation assay on human Thp-1 cell line; format: cell-based; conditions: for % Inhibition on Thp-1 cell line at 100 μg/ml / inhibition at 100 µg/mL: 72 h, MTT, average±standard deviation, triplicate, 100 μg/ml; for inhibition at 100 µg/mL: Homo sapiens, THP-1, 72 h
SMILES,IC90 [1] [µg/mL],% Inhibition on Thp-1 cell line at 100 μg/ml [2] [%],IC90 value determined against M. tuberculosis [1],inhibition at 100 µg/mL [2] [%],anti proliferative activity (in words) ([2]; qualitative statement)
"C=C1C(=O)O[C@H]2/C=C(\C)C[C@@H]3C=C(CC/C=C(\C)CC[C@H]12)C(=O)O3 [Compound 1, (1R,3E,5S,9R,12E)-3,12-Dimethyl-8-methylene-6,18-dioxatricyclo[14.2.1.05,9]nonadeca-3,12,16(19)-triene-7,17-dione]",6.53,96.4 ± 0.4592,,,
"C[C@]12CCC[C@](C)(C(=O)O)[C@@H]1CC[C@@]13C[C@@H](CC[C@@H]12)[C@@](O)(CO)C3 [Compound 2, phyllocladan-16α,17-dihydroxy-19-oic acid]",,59.02 ± 0.8725,Not active^c,59 to 97,"comparable to well known drug, paclitaxel"
"NNC(=O)c1ccncc1 [Isoniazid, reference compound]",0.05 ± 0.003,,,,
"CC(=O)O[C@H]1C(=O)[C@@]2(C)[C@H]([C@H](OC(=O)c3ccccc3)[C@]3(O)C[C@H](OC(=O)[C@H](O)[C@@H](NC(=O)c4ccccc4)c4ccccc4)C(C)=C1C3(C)C)[C@]1(OC(C)=O)CO[C@@H]1C[C@@H]2O [Paclitaxel, reference compound]",,,,61,
